According to US5980913A, “Peptides having immunomodulatory activity” (Biochem Pharma, Inc., priority 1994, dated 1999):
Where a SMILES comes first, the peptide text is derived from it. [ ]: non-standard residue; d: D form.

Columns and labels:
[1] = system: P815 target cells; assay: Cytotoxic T lymphocytes (CTL) assay, 51Cr release, after 5 days mixed culture with drug; assay type: cell-based, C57BL/6 mice
From the text: (§1) 1. Cytotoxic T Lymphocytes (CTL) Mixed Lymphocyte Reaction (MLR) and Mitogenic Response Assays
(§2) The protocols used are described in Hudson L., Haay F., Pratical immunology, 3rd edition, Blackwell, Scientific publications, Oxford 1989, p. 158-162, and p.447.
(§3) Lymphocytes were isolated from C57BL/6 mice and DBA/2 mice in accordance to techniques well known in the art. Cell concentration was adjusted to 10×10^6 cell/ml for each assay. The cells isolated from DBA/2 mice were irradiated with 3000 Rads.
(§4) In a 6 well plate, each well was set up with:
(§5) The cells were incubated for five days at 37° C. in 5% CO2, after which CTL and MLR assays were performed.
a) Cytotoxic T Lymphocytes (CTL)
P815 target cells were labelled with Cr^51 (0.1 mCi). After labelling, the cells were washed three times and resuspended to a concentration of 5×10^4 cells/ml in media. p T cells were then counted and diluted to obtain a concentration of 2.5×10^6 cells/ml, and then further diluted to obtain the following effector:target ratios:
100 μl of target cells+100 μl of CTLs were incubated for 4 hours. In parallel wells, 100 μl of target cells+100 μl of media were incubated for spntaneous release. After incubation, cells were centrifuged and 100 μl of supernatant was then counted using a gamma counter.
Results are expressed as % specific ^51 Cr release= [formula] where ER=experimental release, SR=spontaneous releaase, and
0 represents less than 20%, + represents 20-40%, ++ represents 40-60%, +++ represent 60-80%, and ++++ represents 80% and over.

[2] = system: C57BL/6 lymphocytes with irradiated DBA/2 cells; assay: Mixed lymphocyte reaction (MLR), 3H thymidine uptake; assay type: cell-based, mice
From the text: as §1, §2, §3, §4, §5
b) Mixed Lymphocyte Reaction (MLR)
Mixed lymphocyte reaction is an in vitro counterpart of the allograft rejection. Briefly, lymphocyte activation (mitotic response) is obtained when cells from two inbred strains or from two outbred individuals of any species are mixed in in vitro culture. To have a unidirectional response, the proliferation of either cell type may be blocked with X-ray irradiation or mitomycin C treatment. After 4 days incubation, ^3 H thymidine uptake and cytotoxicity assays (CTL) were performed. The cells were then resuspended and 100 μl of cell suspension was deposited in each well of a 96 well plate. 1 μCi of tritiated thymidine was added for 6 hours. After incubation, the cells were then harvested and counted using a Microbeta counter.

[3] = system: T cells; assay: Activation of T cells by mitogenic proliferation (ConA, PHA); assay type: cell-based, C57BL/6 mice
From the text: (§6) c) Activation of T or B cells by Mitogenic Proliferation
(§7) A mitogenic lectin (mitogen) is a glycoprotein which binds and cross-links specific cells surface carbohydrate determinants, and will polyclonally stimulate lymphoid cells. Lymphocyte activation by either antigens or mitogens results in intracellular changes and the subsequent development into a lymphoblast. Mitogenic stimulation of lymphocytes in vitro is believed to mimic the series of events which occur in vivo following their stimulation by specific antigens. PHA and ConA; PWM and LPS mitogens can be used as a measurement of T cell and B cell activity, respectively. Briefly, the spleen mononuclear leukocytes from C57BL/6 mice are incubated in the presence or absence of mitogens with or without candidate drugs. After 72 hours or 5 days, ^3 H-thymidine incorporation is recorded as an indication of cell proliferation.
(§8) Lymphocytes were isolated from mice spleen or human blood in accordance to methods well known in the art. 100 μl of cell suspension of 2×10^6 cells/ml was added per well (2x10^5 cells/well) and incubated in the presence of lectin at the following concentrations:
PHA=0.01% to 0.001% final concentration
(§9) Cells were incubated for 3 days with PHA or ConA, or 5 days with PWM or LPS. 1 μCi of tritiated thymidine was added to each well for the last 6 hours (or 0.5 μCi for 18 hrs). The cells were harvested in a cell Harvester (Tortech®) and counted in a Beta counter.

[4] = system: B cells; assay: Activation of B cells by mitogenic proliferation (LPS, PWM); assay type: cell-based, C57BL/6 mice
From the text: as §6, §7, §8
PWM=0.2 to 0.02% final concentration
as §9

[5] = concentration not given, 0 not defined

| Compound | CTL, % augmentation compared to IL-2 (IL-2 is 100%) ([1]; 10^-9 M) | MLR ([2]; 10^-9 M) [×] | Activation of T Cells, ConA ([3]; 10^-12 M - 10^-10 M) [×] | Activation of T Cells, PHA [3, 5] | stimulation of T cells in vitro (in words) ([3]; summary of Table 1) | Activation of B Cells, LPS ([4]; 10^-8 - 10^-5 M) | Activation of B Cells, PWM ([4]; 10^-8 - 10^-5 M) | stimulation of B cells in vitro (in words) ([4]; summary of Table 1) | stimulation of CTL in vitro (in words) ([1]; summary of Table 1) | MLR [2, 5] | Activation of T Cells, ConA [3, 5] | Activation of B Cells, LPS [4, 5] | Activation of B Cells, PWM [4, 5] | CTL, % augmentation compared to IL-2 (IL-2 is 100%) ([1]; concentration not given) |
| --- | --- | --- | --- | --- | --- | --- | --- | --- | --- | --- | --- | --- | --- | --- |
| NCCCC[C@H](N)C(=O)N[C@@H](CC(N)=O)C(=O)NCC(=O)N[C@@H](Cc1ccc(O)cc1)C(=O)O [PEPTIDE #2, H-Lys-Asn-Gly-Tyr-OH] (H-KNGY-OH) | ++++ (++++ represents 80% and over) | 1.8 | 1.3 | 0 | stimulates T cells to a moderate extent | 1.8 - 3.5 × | 1.4 - 4.5 × | stimulates B cells |  |  |  |  |  |  |
| NCCCC[C@H](N)C(=O)N[C@@H](CC(N)=O)C(=O)N1CCC[C@@H]1C(=O)N[C@@H](Cc1ccc(O)cc1)C(=O)O [PEPTIDE #3, H-Lys-Asn-(D-Pro)-Tyr-OH] (H-KN[dP]Y-OH) | ++ (++ represents 40-60%) |  |  | 0 |  |  |  |  | stimulate CTL | 0 | 0 | 0 | 0 |  |
| NCCCC[C@H](N)C(=O)N[C@@H](CC(N)=O)C(=O)N1CCC[C@H]1C(=O)N[C@@H](Cc1ccccc1)C(=O)O [PEPTIDE #4, H-Lys-Asn-Pro-Phe-OH] (H-KNPF-OH) |  |  |  | 0 |  |  |  |  |  | 0 | 0 | 0 | 0 | 0 (0 represents less than 20%) |
| NCCCC[C@H](N)C(=O)N[C@@H](CCC(N)=O)C(=O)N1CCC[C@H]1C(=O)N[C@@H](Cc1ccc(O)cc1)C(=O)O [PEPTIDE #6, H-Lys-Gln-Pro-Tyr-OH] (H-KQPY-OH) |  |  |  | 0 |  |  |  |  |  | 0 | 0 | 0 | 0 | 0 (0 represents less than 20%) |
| NCC(=O)N[C@@H](CC(N)=O)C(=O)N1CCC[C@H]1C(=O)N[C@@H](Cc1ccc(O)cc1)C(=O)O [PEPTIDE #8, H-Gly-Asn-Pro-Tyr-OH] (H-GNPY-OH) |  |  |  | 0 |  |  |  |  |  |  | 0 | 0 | 0 |  |
